`CCOCc1nc2c(N)nc3ccccc3c2n1CC(C)(C)NC(=O)CCC(=O)NN` [IRM5, N-{2-[4-Amino-2-(ethoxymethyl)-1H-imidazo[4,5-c]quinolin-1-yl]-1,1-dimethylethyl}-4-hydrazino-4-oxobutanamide]: the melting point lay in the range of 203 to 204.6 °C.
Take `CCCc1nc2c(N)nc3cc(OCCCCCCNC(=O)c4ccc(N=[N+]=[N-])cc4O)ccc3c2s1` [IRM9, N-{6-[(4-Amino-2-propyl[1,3]thiazolo[4,5-c]quinolin-7-yl)oxy]hexyl}-4-azido-2-hydroxybenzamide]: the melting point was 127 to 128 °C.

As a reminder, the melting point is the temperature of the solid-liquid transition.

(Values after patent publication US20060142202A1, “Compositions and methods for targeted delivery of immune response modifiers” (3M Innovative Properties Company, priority 2000, published 2006).)
